Data on one compound can be found in patent US20260165968A1, “SUSTAINED-RELEASE PLGA MICROSPHERE CONTAINING GS-441524, AND METHOD FOR PRODUCING SAME” (THE INDUSTRY & ACADEMIC COOPERATION IN CHUNGNAM NATIONAL …, priority 2022, published 2026).

Data set [1] in a line: Pharmacokinetic evaluation after subcutaneous injection into rats. It counts as in vivo. The method, then:
The pharmacokinetic evaluation of the GS-441524-containing PLGA microspheres of Example F3 according to the disclosure was carried out. Rats as test animals were randomly divided into test and control groups, with 5 animals in each group, and raised under the same conditions while predetermined amounts of solid food and water were supplied for 7 days. The rats were fasted for 12 hours before testing, and then used for testing.
The test group was subcutaneously administered GS-441524 at a dose corresponding to 28 mg/kg by using the PLGA microspheres of Example F3 of the disclosure, and the control group was subcutaneously administered 28 mg/kg GS-441524 alone. Approximately 300 μL of blood was collected by retro-orbital bleeding 1, 2, 4, 8, 12, 24, 48, 72, 96, 120, and 144 hours after the subcutaneous injection to the rats. Each of the obtained samples was centrifuged at 15,000 rpm for 5 minutes to separate the plasma, and then stored at −70° C. before analysis.
Plasma sample pre-treatment was performed using a deproteination method. After 100 μL of a plasma sample was taken, 200 μL of methanol (the internal standard substance 10 ng/MI verapamil) was added thereto, followed by mixing for 10 minutes and then extraction. The extract was centrifuged at 17,000 rpm for 10 minutes, and then the supernatant was collected and analyzed using LC-MS/MS to quantify GS-441524 in the blood.

The conditions of data set [2]: in humans; cited from earlier work.
The mark [3] stands for this setting: rat, plasma, sc, 28 mg/kg GS-441524.

Read-outs that look alike come from different tables or passages of the source.

For orientation: Cmax means the maximum level reached in the sampled fluid or tissue. In general, half-life refers to the time needed for the level to fall by half in the phase considered.

In data set [1] (28 mg/kg GS-441524), `N#C[C@@]1(c2ccc3c(N)ncnn23)O[C@H](CO)[C@@H](O)[C@H]1O` [GS-441524, (2R,3R,4S,5R)-2-(4-aminopyrrolo[2,1-f][1,2,4]triazin-7-yl)-3,4-dihydroxy-5-(hydroxymethyl) oxolane-2-carbonitrile] registered a Cl of 1.039 ± 0.559 L/h/kg and a Vz of 81.261 ± 84.077 L/kg. In data set [1] (setting [3]), this compound gave a Cmax of 8.17 ± 4.08 µg/mL and a half-life of 61.5 ± 66.2 h. In data set [1] (rat, plasma, sc, 28 mg/kg GS-441524, read-out: AUC0→144), the AUC(0-t) stood at 31.6 ± 14.3 µg·h/mL. Also, the half-life result in data set [2] is given as “about 24 hours”.
